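Dose response: 5 concentrations. Exposure: 48 h. Format: 96-well plates. Endpoint: linear interpolation; highest concentration if not reached. Here, GI50 denotes the concentration required for 50% inhibition of growth. The concentration for full growth arrest is given as TGI.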
Legend:
Test in all cases: growth of human tumour cells (NCI), 48 h
[1] = tested on: 786-0 renal
[2] = tested on: A498 renal
[3] = tested on: A549 NSCLC
[4] = tested on: ACHN renal
[5] = tested on: BT-549 breast
[6] = tested on: CAKI-1 renal
[7] = tested on: CCRF-CEM leukemia
[8] = tested on: COLO 205 colon
[9] = tested on: DU-145 prostate
[10] = tested on: EKVX NSCLC
[11] = tested on: HCC-2998 colon
[12] = tested on: HCT-116 colon
[13] = tested on: HCT-15 colon
[14] = tested on: HL-60(TB) leukemia
[15] = tested on: HOP-62 NSCLC
[16] = tested on: HOP-92 NSCLC
[17] = tested on: HS 578T breast
[18] = tested on: HT29 colon
[19] = tested on: IGROV1 ovarian
[20] = tested on: K-562 leukemia
[21] = tested on: KM12 colon
[22] = tested on: LOX IMVI melanoma
[23] = tested on: M14 melanoma
[24] = tested on: MALME-3M melanoma
[25] = tested on: MCF7 breast
[26] = tested on: MDA-MB-231 breast
[27] = tested on: MDA-MB-435
[28] = tested on: MOLT-4 leukemia
[29] = tested on: NCI-H226 lung
[30] = tested on: NCI-H23 lung
[31] = tested on: NCI-H460 lung
[32] = tested on: NCI-H522 lung
[33] = tested on: NCI/ADR-RES ovarian
[34] = tested on: OVCAR-4 ovarian
[35] = tested on: OVCAR-5 ovarian
[36] = tested on: OVCAR-8 ovarian
[37] = tested on: PC-3 prostate
[38] = tested on: RPMI-8226 leukemia
[39] = tested on: RXF 393 renal
[40] = tested on: SF-268 CNS
[41] = tested on: SF-295 CNS
[42] = tested on: SF-539 CNS
[43] = tested on: SK-MEL-2 melanoma
[44] = tested on: SK-MEL-28 melanoma
[45] = tested on: SK-MEL-5 melanoma
[46] = tested on: SK-OV-3 ovarian
[47] = tested on: SN12C renal
[48] = tested on: SNB-19 CNS
[49] = tested on: SNB-75 CNS
[50] = tested on: SR leukemia
[51] = tested on: SW-620 colon
[52] = tested on: T-47D breast
[53] = tested on: TK-10 renal
[54] = tested on: U251 CNS
[55] = tested on: UACC-257 melanoma
[56] = tested on: UACC-62 melanoma
[57] = tested on: UO-31 renal

Work on Nn1c(=O)n(-c2cccc(C(F)(F)F)c2)c(=O)c2cc(-c3ccc(F)cc3F)ccc21 yielded a GI50 [1] of 2140 nM, a TGI [1] of 5260 nM and a GI50 [2] of 327 nM. For the same compound, the TGI [2] was 1300 nM, the GI50 [3] was 2710 nM and the TGI [3] was 12500 nM. It also gave a GI50 [4] of 2400 nM, a TGI [4] of 10300 nM and a GI50 [5] of 667 nM. The TGI [5] was 2140 nM, the GI50 [6] was 1500 nM and the TGI [6] was 5140 nM. The GI50 [7] was 1140 nM, the TGI [7] was 6850 nM and the GI50 [8] was 1940 nM. For the same compound, the TGI [8] was 3670 nM, the GI50 [9] was 3060 nM and the TGI [9] was 17700 nM. It also gave a GI50 [10] of 2480 nM, a TGI [10] of 8790 nM and a GI50 [11] of 2770 nM. The TGI [11] was 9960 nM, the GI50 [12] was 841 nM and the TGI [12] was 2290 nM. For the same compound, the GI50 [13] was 649 nM, the TGI [13] was 2690 nM and the GI50 [14] was 1750 nM. For the same compound, the TGI [14] was 8760 nM, the GI50 [15] was 1900 nM and the TGI [15] was 4600 nM. It also gave a GI50 [16] of 137 nM, a TGI [16] of 523 nM and a GI50 [17] of 1190 nM. For the same compound, the TGI [17] was 5430 nM, the GI50 [18] was 3490 nM and the TGI [18] was 13900 nM. It also gave a GI50 [19] of 1830 nM, a TGI [19] of 27700 nM and a GI50 [20] of 949 nM. The TGI [20] was 14800 nM, the GI50 [21] was 2440 nM and the TGI [21] was 6600 nM. For the same compound, the GI50 [22] was 1490 nM, the TGI [22] was 3130 nM and the GI50 [23] was 1540 nM. For the same compound, the TGI [23] was 4330 nM, the GI50 [24] was 1540 nM and the TGI [24] was 5300 nM. For the same compound, the GI50 [25] was 1610 nM, the TGI [25] was 7080 nM and the GI50 [26] was 1900 nM. For the same compound, the TGI [26] was 6130 nM, the GI50 [27] was 1660 nM and the TGI [27] was 6450 nM. For the same compound, the GI50 [28] was 2050 nM, the TGI [28] was 6120 nM and the GI50 [29] was 1530 nM. For the same compound, the TGI [29] was 4840 nM, the GI50 [30] was 1080 nM and the TGI [30] was 4200 nM. It also gave a GI50 [31] of 776 nM, a TGI [31] of 8030 nM and a GI50 [32] of 390 nM. It also gave a TGI [32] of 2550 nM, a GI50 [33] of 1840 nM and a TGI [33] of 9170 nM. For the same compound, the GI50 [34] was 2550 nM, the TGI [34] was > 100000 nM and the GI50 [35] was 3510 nM. It also gave a TGI [35] of 19000 nM, a GI50 [36] of 1220 nM and a TGI [36] of 6520 nM. The GI50 [37] was 653 nM, the TGI [37] was 4140 nM and the GI50 [38] was 319 nM. It also gave a TGI [38] of 1520 nM, a GI50 [39] of 1120 nM and a TGI [39] of 3110 nM. For the same compound, the GI50 [40] was 1910 nM, the TGI [40] was 10900 nM and the GI50 [41] was 1760 nM. For the same compound, the TGI [41] was 3760 nM, the GI50 [42] was 1730 nM and the TGI [42] was 8230 nM. It also gave a GI50 [43] of 449 nM, a TGI [43] of 2070 nM and a GI50 [44] of 1450 nM. It also gave a TGI [44] of 6650 nM, a GI50 [45] of 338 nM and a TGI [45] of 1240 nM. It also gave a GI50 [46] of 1290 nM, a TGI [46] of 3390 nM and a GI50 [47] of 991 nM. It also gave a TGI [47] of 5360 nM, a GI50 [48] of 1070 nM and a TGI [48] of 13300 nM. The GI50 [49] was 1670 nM, the TGI [49] was 6370 nM and the GI50 [50] was 1210 nM. It also gave a TGI [50] of 5940 nM, a GI50 [51] of 1620 nM and a TGI [51] of 4410 nM. The GI50 [52] was 1690 nM, the TGI [52] was 7020 nM and the GI50 [53] was 4070 nM. It also gave a TGI [53] of 8740 nM, a GI50 [54] of 1510 nM and a TGI [54] of 9920 nM. The GI50 [55] was 1050 nM, the TGI [55] was 3970 nM and the GI50 [56] was 296 nM. It also gave a TGI [56] of 1140 nM, a GI50 [57] of 2270 nM and a TGI [57] of 8800 nM.

From PubChem BioAssay (NCI)
